Source: patent US20240101559A1, “TRICYCLIC KINASE INHIBITORS AND USES THEREOF” (DANA-FARBER CANCER INSTITUTE, INC., priority 2019, published 2024)

Assays:
[1] = biological target: JAK2 (Homo sapiens (Human), UniProt O60674); assay: JAK2 Z-Lyte biochemical assay; conditions: commercial JAK2 Z-Lyte assay from Invitrogen
Protocol: Example 3. JAK2 Z-Lyte Biochemical Assay of the Compounds of the Present Disclosure
The JAK2 Z-Lyte biochemical assay was performed according to manufacturer's instructions (Life Technologies).

[2] = Commercial microsome stability assay (half-life analysis); format: in vitro ADME; conditions: mouse liver microsomes; read-out: half-life in mouse liver microsomes (MLM)
[3] = biological target: CDK11A (Homo sapiens (Human), UniProt Q9UQ88); assay: Competition binding assay (kinase-tagged phage, qPCR); conditions: 11 serial threefold dilutions, read-out: inhibition on CDK11A, IC50
Protocol: Compounds of the present disclosure were analyzed with a competition binding assay with three components: a kinase-tagged phage, a compound of the present disclosure, and an immobilized ligand that the test compound competes with to displace the kinase. The amount of kinase bound to the immobilized ligand is determined using quantitative PCR of the DNA tag. Kd values (nM) reported for each compound were determined using 11 serial threefold dilutions of test compound and a DMSO control.

[4] = tested on: CDK11/cycK; assay: NanoBRET assay, CDK11/cycK; format: cell-based; conditions: live cells, read-out: inhibition of CDK11/cycK interaction
Description: (§1) The NanoBRET™ assay (Promega Corporation) is a bioluminescence resonance energy transfer (BRET)-based assay that uses NanoLuc® Luciferase as the BRET energy donor and HaloTag® protein labeled with the HaloTag® NanoBRET™ 618 fluorescent Ligand as the energy acceptor to measure the interaction of two binding partners in live cells.

[5] = tested on: CDK11/CycL; assay: NanoBRET assay, CDK11/CycL; format: cell-based; conditions: live cells, read-out: inhibition of CDK11/CycL interaction
Description: as §1

[6] = biological target: BRAF (Homo sapiens (Human), UniProt P15056); assay: KINOMEscan kinase selectivity profiling; format: binding; conditions: read-out: Ambit KINOMEscan (percent control %)
Description: (§2) Example 7. In Vitro Kinase Selectivity Profiling of the Compounds of the Present Disclosure

[7] = biological target: BRAF(V600E) (Homo sapiens (Human), UniProt P15056, V600E); assay: KINOMEscan kinase selectivity profiling; format: binding; conditions: read-out: Ambit KINOMEscan (percent control %)
Description: as §2

[8] = biological target: CDC2L2 (Homo sapiens (Human), UniProt Q9UQ88); assay: KINOMEscan kinase selectivity profiling; format: binding; conditions: CDC2L2, 1 μM; read-out: Ambit KINOMEscan (percent control %)
Description: as §2

[9] = biological target: CDK11B (Homo sapiens (Human), UniProt P21127); assay: KINOMEscan kinase selectivity profiling; format: binding; conditions: read-out: Ambit KINOMEscan (percent control %)
Description: as §2

[10] = biological target: CSF1R (Homo sapiens (Human), UniProt P07333); assay: KINOMEscan kinase selectivity profiling; format: binding; conditions: read-out: Ambit KINOMEscan (percent control %)
Description: as §2

[11] = biological target: DDR1 (Homo sapiens (Human), UniProt Q08345); assay: KINOMEscan kinase selectivity profiling; format: binding; conditions: DDR1, 1 μM; read-out: Ambit KINOMEscan (percent control %)
Description: as §2

[12] = biological target: DDR2 (Homo sapiens (Human), UniProt Q16832); assay: KINOMEscan kinase selectivity profiling; format: binding; conditions: DDR2, 1 μM; read-out: Ambit KINOMEscan (percent control %)
Description: as §2

[13] = biological target: KIT(L576P) (Homo sapiens (Human), UniProt P10721, L576P); assay: KINOMEscan kinase selectivity profiling; format: binding; conditions: read-out: Ambit KINOMEscan (percent control %)
Description: as §2

[14] = biological target: PDGFRB (Homo sapiens (Human), UniProt P09619); assay: KINOMEscan kinase selectivity profiling; format: binding; conditions: read-out: Ambit KINOMEscan (percent control %)
Description: as §2

[15] = biological target: TAOK2 (Homo sapiens (Human), UniProt Q9UL54); assay: KINOMEscan kinase selectivity profiling; format: binding; conditions: TAOK2, 1 μM; read-out: Ambit KINOMEscan (percent control %)
Description: as §2

[16] = tested on: cell lines or patient-derived xenografts from patients with CRLF2-rearranged B-ALL; conditions: cited from earlier work

Sequence of JAK2 (O60674 whole entry): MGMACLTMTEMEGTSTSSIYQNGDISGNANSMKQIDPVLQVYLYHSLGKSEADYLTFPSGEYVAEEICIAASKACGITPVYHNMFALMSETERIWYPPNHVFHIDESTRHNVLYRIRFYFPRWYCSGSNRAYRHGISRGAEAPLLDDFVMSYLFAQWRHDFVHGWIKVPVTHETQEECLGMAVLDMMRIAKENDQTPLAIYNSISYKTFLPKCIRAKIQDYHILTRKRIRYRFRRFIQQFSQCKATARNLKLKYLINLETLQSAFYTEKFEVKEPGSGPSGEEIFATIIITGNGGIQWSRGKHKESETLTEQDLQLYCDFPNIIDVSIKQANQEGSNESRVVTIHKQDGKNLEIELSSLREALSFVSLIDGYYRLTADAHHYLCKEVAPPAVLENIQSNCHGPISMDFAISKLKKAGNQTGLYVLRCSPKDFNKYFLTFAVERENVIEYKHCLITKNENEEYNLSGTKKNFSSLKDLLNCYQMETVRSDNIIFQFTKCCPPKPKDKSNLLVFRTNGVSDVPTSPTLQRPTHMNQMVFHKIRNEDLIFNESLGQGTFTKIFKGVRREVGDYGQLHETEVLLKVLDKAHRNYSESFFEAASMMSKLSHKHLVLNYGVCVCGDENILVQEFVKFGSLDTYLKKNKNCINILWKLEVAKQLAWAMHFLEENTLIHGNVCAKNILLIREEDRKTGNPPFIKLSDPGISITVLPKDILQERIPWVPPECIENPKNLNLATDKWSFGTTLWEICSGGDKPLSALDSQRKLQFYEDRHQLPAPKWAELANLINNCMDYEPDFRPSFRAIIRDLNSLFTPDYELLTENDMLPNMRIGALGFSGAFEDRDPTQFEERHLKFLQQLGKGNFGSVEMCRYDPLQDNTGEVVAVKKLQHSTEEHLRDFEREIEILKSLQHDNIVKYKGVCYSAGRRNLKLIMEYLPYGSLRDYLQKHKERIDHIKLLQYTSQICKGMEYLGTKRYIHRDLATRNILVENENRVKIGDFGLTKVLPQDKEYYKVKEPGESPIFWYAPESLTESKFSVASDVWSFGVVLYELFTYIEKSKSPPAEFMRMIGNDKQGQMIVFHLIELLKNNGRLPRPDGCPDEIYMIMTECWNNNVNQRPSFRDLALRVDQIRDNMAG
Sequence of BRAF(V600E) (P15056 whole entry V600E): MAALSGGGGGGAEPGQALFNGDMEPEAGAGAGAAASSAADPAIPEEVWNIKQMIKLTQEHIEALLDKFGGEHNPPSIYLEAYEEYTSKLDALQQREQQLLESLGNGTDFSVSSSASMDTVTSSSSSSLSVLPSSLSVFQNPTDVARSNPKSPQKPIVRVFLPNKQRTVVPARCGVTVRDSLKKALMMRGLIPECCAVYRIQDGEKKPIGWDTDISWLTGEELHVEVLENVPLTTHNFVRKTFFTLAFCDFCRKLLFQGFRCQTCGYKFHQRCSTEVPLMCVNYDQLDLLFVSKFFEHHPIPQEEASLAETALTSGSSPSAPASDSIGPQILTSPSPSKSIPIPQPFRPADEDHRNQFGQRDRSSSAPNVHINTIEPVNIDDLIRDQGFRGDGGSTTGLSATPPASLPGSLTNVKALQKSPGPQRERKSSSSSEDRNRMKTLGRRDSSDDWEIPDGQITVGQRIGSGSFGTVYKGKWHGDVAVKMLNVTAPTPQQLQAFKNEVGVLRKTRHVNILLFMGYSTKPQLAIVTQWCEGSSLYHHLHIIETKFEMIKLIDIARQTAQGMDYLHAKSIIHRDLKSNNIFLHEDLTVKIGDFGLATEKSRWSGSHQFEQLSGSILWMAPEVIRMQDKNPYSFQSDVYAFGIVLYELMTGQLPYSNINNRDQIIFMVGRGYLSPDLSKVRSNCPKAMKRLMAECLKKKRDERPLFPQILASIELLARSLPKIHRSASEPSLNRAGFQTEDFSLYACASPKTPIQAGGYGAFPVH
Sequence of DDR2 (Q16832 22-855): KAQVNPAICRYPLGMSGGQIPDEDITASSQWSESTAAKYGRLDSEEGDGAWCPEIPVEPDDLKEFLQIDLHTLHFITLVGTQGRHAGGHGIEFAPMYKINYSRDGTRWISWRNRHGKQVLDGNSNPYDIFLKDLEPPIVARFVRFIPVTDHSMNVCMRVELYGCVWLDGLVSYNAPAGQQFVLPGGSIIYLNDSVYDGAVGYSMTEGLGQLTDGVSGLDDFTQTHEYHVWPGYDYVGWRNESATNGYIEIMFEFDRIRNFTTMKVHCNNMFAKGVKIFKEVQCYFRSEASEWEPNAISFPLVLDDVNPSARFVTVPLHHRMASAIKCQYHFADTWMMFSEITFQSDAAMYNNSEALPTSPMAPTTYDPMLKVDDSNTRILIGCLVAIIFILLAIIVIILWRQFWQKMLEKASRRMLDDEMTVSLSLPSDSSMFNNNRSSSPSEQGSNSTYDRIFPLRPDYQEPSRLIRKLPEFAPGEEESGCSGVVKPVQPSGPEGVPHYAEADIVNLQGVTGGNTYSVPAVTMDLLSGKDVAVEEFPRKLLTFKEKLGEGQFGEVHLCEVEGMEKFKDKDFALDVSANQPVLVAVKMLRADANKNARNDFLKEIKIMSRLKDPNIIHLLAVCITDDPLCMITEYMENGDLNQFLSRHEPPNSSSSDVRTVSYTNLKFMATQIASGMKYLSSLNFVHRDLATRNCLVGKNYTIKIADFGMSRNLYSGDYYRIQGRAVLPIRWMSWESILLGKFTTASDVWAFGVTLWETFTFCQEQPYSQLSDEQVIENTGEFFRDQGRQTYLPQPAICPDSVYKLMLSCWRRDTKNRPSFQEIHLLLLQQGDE
Sequence of TAOK2 (Q9UL54 whole entry): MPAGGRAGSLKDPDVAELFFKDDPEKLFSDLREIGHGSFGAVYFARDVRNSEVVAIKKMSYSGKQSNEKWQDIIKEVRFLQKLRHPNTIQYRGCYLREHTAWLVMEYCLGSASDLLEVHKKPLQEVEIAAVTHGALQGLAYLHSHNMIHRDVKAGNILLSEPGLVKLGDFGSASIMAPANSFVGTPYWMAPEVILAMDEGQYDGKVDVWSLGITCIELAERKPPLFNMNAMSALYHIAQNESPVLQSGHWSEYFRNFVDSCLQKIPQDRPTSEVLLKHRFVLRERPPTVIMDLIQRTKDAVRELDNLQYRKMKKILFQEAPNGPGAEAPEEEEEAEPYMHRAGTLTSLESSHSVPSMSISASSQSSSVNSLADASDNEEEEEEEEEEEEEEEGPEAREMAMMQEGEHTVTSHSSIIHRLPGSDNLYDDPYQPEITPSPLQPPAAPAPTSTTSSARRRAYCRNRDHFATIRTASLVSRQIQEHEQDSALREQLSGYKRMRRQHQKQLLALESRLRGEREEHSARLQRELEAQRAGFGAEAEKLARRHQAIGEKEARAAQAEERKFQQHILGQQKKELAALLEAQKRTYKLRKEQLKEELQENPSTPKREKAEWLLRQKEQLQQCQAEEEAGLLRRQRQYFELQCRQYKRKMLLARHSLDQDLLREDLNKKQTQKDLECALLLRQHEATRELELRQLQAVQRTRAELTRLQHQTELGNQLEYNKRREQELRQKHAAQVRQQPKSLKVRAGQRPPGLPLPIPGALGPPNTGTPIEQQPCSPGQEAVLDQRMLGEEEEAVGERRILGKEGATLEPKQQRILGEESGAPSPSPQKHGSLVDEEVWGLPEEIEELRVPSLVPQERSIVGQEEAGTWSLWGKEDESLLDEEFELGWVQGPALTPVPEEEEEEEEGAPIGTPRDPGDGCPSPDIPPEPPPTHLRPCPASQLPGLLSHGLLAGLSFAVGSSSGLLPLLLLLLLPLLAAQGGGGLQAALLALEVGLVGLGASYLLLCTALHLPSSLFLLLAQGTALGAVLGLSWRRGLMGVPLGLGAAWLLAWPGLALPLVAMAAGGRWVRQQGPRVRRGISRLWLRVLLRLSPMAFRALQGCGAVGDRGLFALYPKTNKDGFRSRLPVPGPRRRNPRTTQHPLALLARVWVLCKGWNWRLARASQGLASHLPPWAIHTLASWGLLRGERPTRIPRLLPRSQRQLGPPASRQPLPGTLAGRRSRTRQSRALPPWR
Sequence of CDK11B (P21127 whole entry): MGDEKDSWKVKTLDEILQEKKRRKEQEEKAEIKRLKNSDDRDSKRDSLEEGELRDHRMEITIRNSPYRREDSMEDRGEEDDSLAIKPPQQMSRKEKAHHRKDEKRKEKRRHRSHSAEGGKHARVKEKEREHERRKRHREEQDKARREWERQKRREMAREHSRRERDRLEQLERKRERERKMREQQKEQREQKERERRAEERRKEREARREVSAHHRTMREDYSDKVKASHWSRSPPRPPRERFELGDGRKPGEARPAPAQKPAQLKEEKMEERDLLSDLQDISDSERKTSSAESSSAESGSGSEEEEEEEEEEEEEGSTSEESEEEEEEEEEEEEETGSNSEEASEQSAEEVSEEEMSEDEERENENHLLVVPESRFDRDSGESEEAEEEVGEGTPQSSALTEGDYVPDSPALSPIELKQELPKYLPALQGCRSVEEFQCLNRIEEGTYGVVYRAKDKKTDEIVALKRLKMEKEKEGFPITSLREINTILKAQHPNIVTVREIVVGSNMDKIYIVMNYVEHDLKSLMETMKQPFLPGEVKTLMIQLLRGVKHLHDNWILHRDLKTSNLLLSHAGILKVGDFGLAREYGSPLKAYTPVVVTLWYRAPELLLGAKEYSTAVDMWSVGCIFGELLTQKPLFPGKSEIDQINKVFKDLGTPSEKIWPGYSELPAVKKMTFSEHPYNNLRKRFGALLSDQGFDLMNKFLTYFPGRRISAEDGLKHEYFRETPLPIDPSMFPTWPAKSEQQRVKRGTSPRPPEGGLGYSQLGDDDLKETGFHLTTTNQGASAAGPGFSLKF
Sequence of BRAF (P15056 whole entry): as the sequence (P15056 whole entry V600E) above, with E600V counted along it

Q: With `CCN1CCN(Cc2ccc(Nc3nc4ccc(Oc5ccnc(NC(C)=O)c5)c5c4n3CCC5)cc2C(F)(F)F)CC1` [Compound I-1, N-(4-((2-((4-((4-ethylpiperazin-1-yl)methyl)-3-(trifluoromethyl)phenyl)amino)-5,6-dihydro-4H-imidazo [4,5,1-ij]quinolin-7-yl)oxy)pyridin-2-yl) acetamide] as the compound, how does the IC50 [1] read?
A: 0.82 µM

Q: And the half-life [2]?
A: 16.7 min

Q: And the IC50 [3]?
A: 0.03 µM

Q: What about the IC50 [4] of the same compound?
A: 0.278 µM

Q: And the IC50 [5]?
A: 0.29 µM

Q: What about the remaining binding at 1 µM [6] of the same compound?
A: 5.5%

Q: And the remaining binding at 1 µM [7]?
A: 2%

Q: What about the remaining binding at 1 µM [8] of the same compound?
A: 1%

Q: And the remaining binding at 1 µM [9]?
A: 1.3%

Q: What about the remaining binding at 1 µM [10] of the same compound?
A: 0.75%

Q: And the remaining binding at 1 µM [11]?
A: 0%

Q: And the remaining binding at 1 µM [12]?
A: 0%

Q: And the remaining binding at 1 µM [13]?
A: 0.2%

Q: What about the remaining binding at 1 µM [14] of the same compound?
A: 0.1%

Q: And the remaining binding at 1 µM [15]?
A: 0.3%

Q: With `CC(=O)Nc1cc(Oc2ccc3nc(Nc4ccc(Cl)c(C(F)(F)F)c4)n4c3c2CCC4)ccn1` [Compound I-3, N-(4-((2-((4-chloro-3-(trifluoromethyl)phenyl)amino)-5,6-dihydro-4H-imidazo[4,5,1-ij]quinolin-7-yl)oxy)pyridin-2-yl)acetamide] as the compound, how does the IC50 [1] read?
A: > 10 µM

Q: With `CCN1CCN(Cc2cc(Nc3nc4ccc(Oc5ccnc(NC(C)=O)c5)c5c4n3CCC5)cc(C(F)(F)F)c2)CC1` [Compound I-4, N-(4-((2-((3-((4-ethylpiperazin-1-yl)methyl)-5-(trifluoromethyl)phenyl)amino)-5,6-dihydro-4H-imidazo[4,5,1-ij]quinolin-7-yl)oxy)pyridin-2-yl)acetamide] as the compound, how does the IC50 [1] read?
A: 1.81 µM

Q: With `CC(=O)Nc1cc(Oc2ccc3nc(Nc4ccc(CN5CCN(C)CC5)cc4)n4c3c2CCC4)ccn1` [Compound I-5, N-(4-((2-((4-((4-methylpiperazin-1-yl)methyl)phenyl)amino)-5,6-dihydro-4H-imidazo[4,5,1-ij]quinolin-7-yl)oxy)pyridin-2-yl)acetamide] as the compound, how does the IC50 [1] read?
A: 5.94 µM

Q: For `CC(=O)Nc1cc(Oc2ccc3nc(Nc4ccc(F)cc4F)n4c3c2CCC4)ccn1` [Compound I-6, N-(4-((2-((2,4-difluorophenyl)amino)-5,6-dihydro-4H-imidazo[4,5,1-ij]quinolin-7-yl)oxy)pyridin-2-yl)acetamide], which IC50 [1] is on record?
A: 1.82 µM

Q: With `CC(=O)Nc1cc(Oc2ccc3nc(Nc4cc(-n5cnc(C)c5)cc(C(F)(F)F)c4)n4c3c2CCC4)ccn1` [Compound I-7, N-(4-((2-((3-(4-methyl-1H-imidazol-1-yl)-5-(trifluoromethyl)phenyl)amino)-5,6-dihydro-4H-imidazo[4,5,1-ij]quinolin-7-yl)oxy)pyridin-2-yl)acetamide] as the compound, how does the IC50 [1] read?
A: 4.56 µM

Q: With `CC(=O)Nc1cc(Oc2ccc3nc(Nc4cc(N5CCN(C)CC5)cc(C(F)(F)F)c4)n4c3c2CCC4)ccn1` [Compound I-8, N-(4-((2-((3-(4-methylpiperazin-1-yl)-5-(trifluoromethyl)phenyl)amino)-5,6-dihydro-4H-imidazo[4,5,1-ij]quinolin-7-yl)oxy)pyridin-2-yl)acetamide] as the compound, how does the IC50 [1] read?
A: 9.93 µM

Q: Which IC50 [1] does the source give for `CC(=O)Nc1cc(Oc2ccc3nc(Nc4ccc(CN5CCC(N(C)C)C5)c(C(F)(F)F)c4)n4c3c2CCC4)ccn1` (stereo not shown) [Compound I-9, N-(4-((2-((4-((3-(dimethylamino)pyrrolidin-1-yl)methyl)-3-(trifluoromethyl)phenyl)amino)-5,6-dihydro-4H-imidazo[4,5,1-ij]quinolin-7-yl)oxy)pyridin-2-yl)acetamide] here?
A: 1.77 µM

Q: With `CC(=O)Nc1cc(Oc2ccc3nc(Nc4cc(C(C)(C)C)nn4-c4ccc(C)cc4)n4c3c2CCC4)ccn1` [Compound I-10, N-(4-((2-((3-(tert-butyl)-1-(p-tolyl)-1H-pyrazol-5-yl)amino)-5,6-dihydro-4H-imidazo[4,5,1-ij]quinolin-7-yl)oxy)pyridin-2-yl)acetamide] as the compound, how does the IC50 [1] read?
A: > 10 µM

Q: For `CC(=O)Nc1cc(Oc2ccc3nc(Nc4ccc(OC5CCN(C)CC5)c(C(F)(F)F)c4)n4c3c2CCC4)ccn1` [Compound I-11, N-(4-((2-((4-((1-methylpiperidin-4-yl)oxy)-3-(trifluoromethyl)phenyl)amino)-5,6-dihydro-4H-imidazo[4,5,1-ij]quinolin-7-yl)oxy)pyridin-2-yl)acetamide], which IC50 [1] is on record?
A: 3.68 µM

Q: Which IC50 [16] does the source give for `N#CC[C@H](C1CCCC1)n1cc(-c2ncnc3[nH]ccc23)cn1` [Ruxolitinib] here?
A: > 20 µM
